Experimental data published in US20230192701A1, “BICYCLIC KINASE INHIBITORS AND USES THEREOF” (iOmx Therapeutics AG, priority 2020, published 2023).

Tests used:
[1] = target: SIK3 (Homo sapiens, UniProt Q9Y2K2); assay: radiometric protein kinase assay (33PanQinase Activity Assay), SIK3; format: biochemical; conditions: ATP 1.0 μM, substrate RBER-CHKtide
[2] = tested on: 335 wild-type protein kinases; assay: single-point inhibition assays, residual activity (ProQinase Kinase Profiler); format: biochemical; conditions: single-point 0.1 uM and 1 uM, 335 kinases
Description: Several compounds of Formula (I) described herein were also tested in single-point (0.1 uM and 1 uM) inhibition assays over a diverse set of 335 wild-type protein (ProQinase “Kinase Profiler”; ProQinase, Freiburg, Germany), in which the residual activity of each kinase was determined. […] Secondly, the residual activity of each kinase was compared to other compounds tested (in particular, against the prior art compounds PY1) by use of scatter plots.

[3] = Human liver microsomal stability; format: in vitro ADME; conditions: pH 7.4; human liver microsomes, NADPH, 37°C
Description: (§1) Briefly, human and liver microsomal stability was determined by pre-incubation of 2.5 uL compound and 75 uL of the respective liver microsomes in potassium phosphate buffer (pH 7.4) at 37° C. After adding of NADPH as cofactor and further incubation at 37° C. for 60 min, acetonitrile containing internal standard was added, and the sample was vortexed for 5 min at 1200 rpm and then centrifuged 10 min at 4000 rpm.
(§2) LC-MS/MS was performed for all assays using a C18 column (50*4.6 mm, 5 um) for the CaCo2 assay, or a C18 column (50*4.6 mm, 4 um) for the other assays. The mobile phases used were 10 mM Ammonium Acetate with 0.1% Formic acid (aqueous) and 100% Acetonitrile (organic).

[4] = Mouse liver microsomal stability; format: in vitro ADME; conditions: pH 7.4; mouse liver microsomes, NADPH, 37°C
Description: as §1, §2

[5] = Mouse hepatocyte stability; format: in vitro ADME; conditions: mouse hepatocytes, 37°C
Description: Determination of human and mice hepatocyte stability was conducted as follows. 200 uL of the respective hepatocyte cell suspension (2×10e6/ml) was preincubated at 37° C. for 10 min. Then, 200 uL of a 2 uM working stock of the test compound was added to the hepatocyte cell suspension, and the mixture was further incubated at 37° C. and 500 rpm. The reaction was stopped at 30, 60 and 120 min by precipitating 50 uL of the incubation mixture with 200 uL of acetonitrile. Samples were vortexed for 5 min at 1200 rpm and centrifuged at 4000 rpm for 10 min. Intrinsic clearance and half-life were analysed using LC-MS/MS.
as §2

[6] = Human plasma-protein binding (RED method); format: in vitro ADME
Description: (§3) Human and mice protein plasma binding was determined using the Plasma Protein Binding by RED Method. Briefly, 200 uL of the respective plasma containing the test compound (10 uM) was spiked into the donor well (RED Chamber) of the insert. 350 uL of PBS was spiked into receiver well (white chamber). The plate was incubated at 37° C. in a thermomixer at 400 rpm for 5 hours. The samples were matrix equilibrated with opposite matrix (25 uL blank buffet/Plasma). Matrix matched samples were precipitated with 200 uL of Acetonitrile containing Internal standard. Samples were vortexed at 1000 rpm for 5 min and centrifuged at 4000 rpm for 10 min. The supernatant was diluted 2 folds with water and % bound and unbound protein and % recovery at 5 h was determined by LC-MS/MS.
as §2

[7] = Murine plasma protein binding (RED method); format: in vitro ADME; conditions: mouse
Description: as §3, §2

Sequence of SIK3 (Q9Y2K2 whole entry): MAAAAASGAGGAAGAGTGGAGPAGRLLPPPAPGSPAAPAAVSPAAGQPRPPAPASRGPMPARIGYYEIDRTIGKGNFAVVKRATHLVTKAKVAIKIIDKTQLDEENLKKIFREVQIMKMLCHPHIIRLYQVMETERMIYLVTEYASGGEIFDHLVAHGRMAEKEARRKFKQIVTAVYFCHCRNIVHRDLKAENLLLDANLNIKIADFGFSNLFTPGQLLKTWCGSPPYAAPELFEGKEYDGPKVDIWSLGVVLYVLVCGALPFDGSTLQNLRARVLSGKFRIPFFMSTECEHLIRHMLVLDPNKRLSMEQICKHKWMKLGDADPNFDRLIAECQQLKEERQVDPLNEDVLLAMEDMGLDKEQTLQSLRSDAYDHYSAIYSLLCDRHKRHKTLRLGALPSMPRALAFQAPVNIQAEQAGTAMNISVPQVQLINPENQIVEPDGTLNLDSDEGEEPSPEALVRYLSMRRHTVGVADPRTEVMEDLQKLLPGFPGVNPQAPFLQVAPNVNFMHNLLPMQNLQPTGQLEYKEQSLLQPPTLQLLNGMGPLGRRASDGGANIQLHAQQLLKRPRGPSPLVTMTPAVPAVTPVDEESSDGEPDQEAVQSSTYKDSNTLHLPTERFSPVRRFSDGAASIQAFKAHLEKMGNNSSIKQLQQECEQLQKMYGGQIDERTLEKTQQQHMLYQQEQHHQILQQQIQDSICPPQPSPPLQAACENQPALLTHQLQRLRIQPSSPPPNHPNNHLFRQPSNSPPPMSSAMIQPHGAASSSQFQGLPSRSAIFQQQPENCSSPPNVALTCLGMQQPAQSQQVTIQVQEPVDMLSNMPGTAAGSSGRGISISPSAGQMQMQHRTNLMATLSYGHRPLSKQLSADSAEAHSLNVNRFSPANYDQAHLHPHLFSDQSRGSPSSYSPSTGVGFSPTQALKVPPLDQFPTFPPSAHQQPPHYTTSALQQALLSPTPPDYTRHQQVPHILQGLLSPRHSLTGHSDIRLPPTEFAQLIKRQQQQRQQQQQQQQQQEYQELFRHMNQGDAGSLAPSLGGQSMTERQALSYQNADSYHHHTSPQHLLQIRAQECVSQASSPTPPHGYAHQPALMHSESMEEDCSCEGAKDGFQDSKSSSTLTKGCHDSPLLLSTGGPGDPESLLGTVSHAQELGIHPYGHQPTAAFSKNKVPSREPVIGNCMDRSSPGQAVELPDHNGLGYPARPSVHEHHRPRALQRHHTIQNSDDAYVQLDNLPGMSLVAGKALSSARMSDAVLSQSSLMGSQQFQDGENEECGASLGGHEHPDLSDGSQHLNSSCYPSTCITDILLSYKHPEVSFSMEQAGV

COc1ccc(N2C(=O)N(c3c(C)csc3Cl)Cc3cnc(Nc4ccc(C5CCN(C)CC5)cc4OC)nc32)nc1 [AA1, 3-(2-chloro-4-methylthiophen-3-yl)-7-((2-methoxy-4-(1-methylpiperidin-4-yl)phenyl)amino)-l-(5-methoxypyridin-2-yl)-3,4-dihydropyrimido[4,5-d]pyrimidin-2(1H)-one]
IC50 [1]: 200 to 400 nM
overall kinase profile compared to prior art compound PY1 [2]: most similar overall kinase profile to the prior art compound PY1
particular kinases with different inhibition than PY1 [2]: BLK, SIK3 and TEC
half-life [3]: 18 min
half-life [4]: 45 min
half-life at 1 uM [5]: 104 min
recovery at 5 h, 10 uM [6]: 32%
recovery at 5 h, 10 uM [7]: 40%
